Experimental data from US9499467B2, “Ortho-fluoro substituted compounds for the treatment of metabolic diseases” (CALDAN THERAPEUTICS LIMITED, priority 2011, dated 2016).

Biological target: T1, GPR40 (Homo sapiens, UniProt O14842)
T1 construct: expressed in transfected cells
Assay: Calcium mobilization in GPR40-transfected cells
Format: cell-based
Conditions: calcium mobilization in GPR40-transfed cells
Protocol: The compounds were tested for their ability to mobilize calcium in GPR40-transfed cells as described by Christiansen et al. (J. Med. Chem. 2011, 54, 6691-6703).

T1 sequence (O14842 whole entry): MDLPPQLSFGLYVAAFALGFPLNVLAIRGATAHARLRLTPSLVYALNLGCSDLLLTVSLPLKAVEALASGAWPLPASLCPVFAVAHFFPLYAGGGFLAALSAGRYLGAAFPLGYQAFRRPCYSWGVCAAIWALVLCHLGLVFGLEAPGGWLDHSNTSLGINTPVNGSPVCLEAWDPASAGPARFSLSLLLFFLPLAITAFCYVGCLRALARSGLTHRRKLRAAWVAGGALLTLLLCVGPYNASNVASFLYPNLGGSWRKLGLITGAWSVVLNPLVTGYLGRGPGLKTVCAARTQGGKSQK

| GPR40 activity (pEC50) | Compound |
| --- | --- |
| 5.84 | CS(=O)(=O)Cc1ccccc1C#Cc1ccc(CCC(=O)O)c(F)c1 [Example 8, 3-(2-Fluoro-4-((2-((methylsulfonyl)methyl)phenyl)ethynyl)phenyl)propanoic acid] |
| 7.48 | Cc1ccccc1C#Cc1ccc(CCC(=O)O)c(F)c1 [Example 5, 3-(2-Fluoro-4-(o-tolylethynyl)phenyl)propanoic acid] |
| 6.85 | O=C(O)CCc1c(F)cc(C#Cc2ccccc2)cc1F [Example 10, 3-(2,6-Difluoro-4-(phenylethynyl)phenyl)propanoic acid] |
| 6.84 | O=C(O)CCc1ccc(C#Cc2ccccc2)c(F)c1 [Example 11, 3-(3-Fluoro-4-(phenylethynyl)phenyl)propanoic acid] |

Further lines, the compound ahead of its results:

| Compound | GPR40 activity (pEC50) |
| --- | --- |
| C/C(C#Cc1ccc(CCC(=O)O)c(F)c1)=C/CO [Example 12, (Z)-3-(2-Fluoro-4-(5-hydroxy-3-methylpent-3-en-1-yn-1-yl)phenyl)propanoic acid] | 6.37 |
| C/C=C(/C)C#Cc1ccc(CCC(=O)O)c(F)c1 [Example 3, (Z)-3-(2-Fluoro-4-(3-methylpent-3-en-1-yn-1-yl)phenyl)propanoic acid] | 7.69 |
| O=C(O)CCc1ccc(C#Cc2cc(F)ccc2C(F)F)cc1F [Example 14, 3-(4-((2-(Difluoromethyl)-5-fluorophenyl)ethynyl)-2-fluorophenyl)propanoic acid] | 7.74 |
| O=C(O)CCc1ccc(C#Cc2ccccc2)cc1F [Example 1, 3-(2-Fluoro-4-(phenylethynyl)phenyl)propanoic acid] | 7.48 |
| C/C=C(\C)C#Cc1ccc(CCC(=O)O)c(F)c1 [Example 4, (E)-3-(2-Fluoro-4-(3-methylpent-3-en-1-yn-1-yl)phenyl)propanoic acid] | 7.43 |
| O=C(O)CCc1ccc(C#Cc2cc(Cl)cc(Cl)c2)cc1F [Example 13, 3-(4-((3,5-Dichlorophenyl)ethynyl)-2-fluorophenyl)propanoic acid] | 7.42 |
| C=C(C)C#Cc1ccc(CCC(=O)O)c(F)c1 [Example 2, 3-(2-Fluoro-4-(3-methylbut-3-en-1-yn-1-yl)phenyl)propanoic acid] | 7.09 |
| CS(=O)(=O)Cc1cccc(C#Cc2ccc(CCC(=O)O)c(F)c2)c1 [Example 9, 3-(2-Fluoro-4-((3-((methylsulfonyl)methyl)phenyl)ethynyl)phenyl)propanoic acid] | 5.71 |
| Cc1ccc(C#N)cc1C#Cc1ccc(CCC(=O)O)c(F)c1 [Example 7, 3-(4-((5-Cyano-2-methylphenyl)ethynyl)-2-fluorophenyl)propanoic acid] | 7.77 |
